System: wild-type HSV-1 McIntyre strain
Assay: Antiviral assay (plaque reduction) in Vero cells
Type: cell-based, herpes simplex virus-1 (HSV-1)
Conditions: 50-1000 μg/ml; 80 PFU; 48 hours
Protocol: Antiviral assay: The virus used was the wild-type HSV-1 McIntyre strain. For the inhibition experiments, 7×10^4 Vero cells/well were grown in 24 well plates.
Cell monolayers were infected with HSV-1 in the presence or absence of the nanoparticles, as described in the antiviral assay in the Experimental, and observed for the presence of plaques after 48 hours. Plaque formation was obtained by the addition of γ-globulins, which prevents virus dissemination while retaining cell-to-cell spread. FIG. 3A (panels a-h) show images of the cell cultures after 48 hours.

## O=S(=O)([O-])CCS.[Na+] [soluble MES, sodium 2-mercaptoethanesulfonate]
  inhibition of virus infection (number of plaques and average size): completely ineffective

Source: US8758777B2, “Pharmaceutical compositions comprising water-soluble sulfonate-protected nanoparticles and uses thereof” (Bar-Ilan University, priority 2010, dated 2014)
